The target in the test is T1, C3aR (Rattus norvegicus, UniProt O55197).
T1 construct: characterize for the first time a C3aR-induced innate immune response in vivo in rats; from tissue; host or cells: live male Wistar rats, hind paw
T1 sequence (O55197 1-473): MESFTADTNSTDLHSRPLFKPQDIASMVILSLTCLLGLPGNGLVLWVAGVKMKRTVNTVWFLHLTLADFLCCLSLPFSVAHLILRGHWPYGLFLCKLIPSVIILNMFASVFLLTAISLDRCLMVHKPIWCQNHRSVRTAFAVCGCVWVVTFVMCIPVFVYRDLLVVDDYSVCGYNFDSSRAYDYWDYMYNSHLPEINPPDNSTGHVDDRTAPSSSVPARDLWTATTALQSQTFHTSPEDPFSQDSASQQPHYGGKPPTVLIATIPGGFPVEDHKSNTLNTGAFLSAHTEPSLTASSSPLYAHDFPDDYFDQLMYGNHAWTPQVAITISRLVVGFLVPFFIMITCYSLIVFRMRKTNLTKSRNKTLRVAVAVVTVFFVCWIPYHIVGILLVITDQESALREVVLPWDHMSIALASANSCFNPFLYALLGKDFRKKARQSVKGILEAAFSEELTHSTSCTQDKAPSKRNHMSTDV
Put plainly: Antagonism of BR103-induced rat paw edema by oral C3aR antagonist. It is filed as in vivo. Here is the method:
Male Wistar rats (8–9 weeks) were injected with BR103 (3, 350 μg in 100 μL isotonic saline) into the plantar surface of both hind paw pads using a 30G needle. The inhibitor cromolyn (20 mg/kg in 5% DMSO) was injected subcutaneously 30 min before the agonist. The antagonist BR111 (6, 5–20 mg/kg in olive oil) was administered orally as a single dose 2 h before the agonist. Paw thickness and width were measured using digital calipers (WPI) at 0, 0.5, 2, 6 and 24 h after agonist BR103 administration. Hind paw size is expressed as % change in area from baseline after 0.5 h and then normalized against maximum swelling induced by agonist alone. Researchers were not blinded to treatments given.
Rat paw tissue was collected and fixed in 4% paraformaldehyde (pH 7.4) for 2 h in the cold room (4 °C). The rat paw tissue was then transferred into falcon tubes containing 30% sucrose solution in PBS and left overnight in the cold room. The next day, rat paw tissue was embedded with the Optimal Cutting Temperature compound (OCT, Sakura Finetek, USA) and stored in the −80 °C freezer before being used for making cryo-sections for histological analysis. Frozen sections of 5 microns were prepared using a cryostat-microtome (Leica Biosystems, Germany) and stained using standard protocols on the same day. In normal histological staining, such as with alcian blue and safranin O and hematoxylin and eosin (H&E), samples were briefly washed with distilled water before staining. In alcian blue and safranin O, samples were stained with 0.1% alcian blue (Sigma-Aldrich, USA) and 0.5% safranin O (Sigma-Aldrich, USA) before being mounted in mounting medium. In H&E, samples were stained with hematoxylin (Sigma-Aldrich, USA) and 0.1% eosin (Sigma-Aldrich, USA) before being mounted in mounting medium. In immunohistochemistry, samples were briefly rinsed with PBS to remove OCT and incubated with blocking medium (PBS, 0.1% triton X-100, 10% horse serum) for 1 h at room temperature. Samples were incubated with primary antibody medium (PBS, 4% horse serum, 1:200 histamine or 1:200 of tryptase or 1:150 ED1 or 1:200 ED2 antibodies) overnight at 4 °C. The next day, samples were washed with PBS and were incubated with the secondary antibody medium (PBS, 4% horse serum, detection antibody 1:1000) for 1 h at room temperature. The samples were briefly rinsed, dried and counterstained with DAPI (Invitrogen, Australia). Primary antibodies for histamine (Sigma-Aldrich, USA, H2403, monoclonal rabbit anti-rat IgG, 1: 200), tryptase (Abcam, Australia, ab2378, monoclonal mouse anti-rat IgG, 1:200), ED1 (Serotec, UK, MCA341R, monoclonal mouse anti-rat, 1:150), ED2 (Serotec, UK, MCA3424R, monoclonal mouse anti-rat, 1:200) were purchased from commercial sources. Secondary detection antibody was purchased from (Invitrogen, Australia). ED1 & ED2 positive cells were quantified using FIJI/ImageJ 1.42q software, U.S. National Institutes of Health, Bethesda, MD, USA[44]. All microscope images were obtained using an Olympus BX-51 upright microscope with Olympus DP-71 12Mp colour camera, utilizing DP Capture and DP Manager software packages (Olympus, Tokyo, Japan). Researchers who performed histological analysis and scoring were blinded to the sample identity.
Rat paw tissues were collected and immediately frozen with liquid nitrogen. The frozen rat paw tissue samples were weighed and crushed into smaller pieces with a mortar and pestle in liquid nitrogen. […]

The text below walks through data of paper PMC5570900, “Exploiting a novel conformational switch to control innate immunity mediated by complement protein C3a” (Nature Communications, 2017).

For the compound `N=C(N)NCCCC(NC(=O)c1ccc(C(c2ccccc2)c2ccccc2)s1)C(=O)O` (centres unmarked) [Compound 6], the “Effect on BR103-induced infiltration of ED1 macrophages” value (20 mg/kg p.o., 2 h prior, 0.5 h) is on record as “prevented the increased infiltration of inflammatory ED1 macrophages”. Under “20 mg/kg p.o., 2 h prior, 30 min”, the “Effect on BR103-induced proinflammatory cytokine and chemokine gene expression” value is “suppression of BR103-induced gene expression of proinflammatory cytokines and chemokines”. Moreover, where the note is “20 mg/kg p.o., 2 h prior, 0.5 h after agonist”, the “Effect on BR103-induced mast cell activation and degranulation and histamine secretion” value is “attenuated”. For the same compound, the “Effect on BR103-induced neutrophil activation (MPO activity)” value (20 mg/kg p.o., 2 h prior, 6 h after BR103) is given as “attenuated neutrophil activation at 6 h”. Further, for the setting “oral pretreatment 2 h before BR103 350 µg/paw i.pl., 5–20 mg/kg p.o., swelling at 30 min”, the “Effect on BR103-induced paw edema” value is on record as “strongly inhibited acute rat paw edema”.
